Consider one molecule from ChEMBL document CHEMBL3045080, “Baseline susceptibility to chlorantraniliprole of Brazilian populations of Plutella xylostella” (2012).

Common to all, as to format: functional
Test [1] has as its system Plutella xylostella. As to the kind of experiment: Insecticidal activity against Plutella xylostella (diamondback moth) CG1 using topical method of compound application.
Test [2] has as its system Plutella xylostella. As to the kind of experiment: Insecticidal activity against Plutella xylostella (diamondback moth) CG1 using leaf dip immersion method of compound application.
In test [3] the test system is Plutella xylostella. The experiment in a line: Insecticidal activity against Plutella xylostella (diamondback moth) CG1 using potter tower method of compound application.
In test [4] the test system is Plutella xylostella. The experiment in a line: Insecticidal activity against Plutella xylostella (diamondback moth) Brazilian field isolates.

Take `CNC(=O)c1cc(Cl)cc(C)c1NC(=O)c1cc(Br)nn1-c1ncccc1Cl` [CHLORANTRANILIPROLE]: the LC50 turned out to be 1.422 mgAi/L with Plutella xylostella [1], 0.02 mgAi/L in the test on Plutella xylostella [2], 0.018 mgAi/L in the test with Plutella xylostella [3] and 0.025 mgAi/L in the test on Plutella xylostella [4]. In addition, the results for the LC95 in the test with Plutella xylostella [1], in the test with Plutella xylostella [2] and in the test with Plutella xylostella [3] were 35.13 mgAi/L, 0.046 mgAi/L and 0.073 mgAi/L, respectively. Also, the LC99 was found to be 132.65 mgAi/L in the test on Plutella xylostella [1], 0.066 mgAi/L in the test on Plutella xylostella [2], 0.13 mgAi/L in the test with Plutella xylostella [3] and 0.212 mgAi/L in the test with Plutella xylostella [4].
